# From patent EP4635500A1, “THERAPEUTIC AGENT FOR BACTERIAL INFECTION” (Sumitomo Pharma Co., Ltd., priority 2022, dated 2024)
# Test system: P. aeruginosa
# Experiment: MIC, broth microdilution, CDC/FDA Antibiotic Resistance Isolate Bank (Example 7, Tables 10, 15)
# Assay type: cell-based
# [1] = 26 metallo-carbapenemase-producing P. aeruginosa strains, β-lactamase inhibitor µg/mL in parentheses
# [2] = 96 strains of P. aeruginosa, β-lactamase inhibitor µg/mL in parentheses
substance,measurement,setting,value
colistin,MIC against 26 metallo-carbapenemase-producing strains MIC50,[1],1 µg(mL)
same,MIC against 26 metallo-carbapenemase-producing strains MIC80,[1],1 µg(mL)
same,MIC against 26 metallo-carbapenemase-producing strains MIC90,[1],1 µg(mL)
same,MIC against 26 metallo-carbapenemase-producing strains MICrange,[1],0.5 - 2 µg(mL)
same,MIC against 96 strains of P. aeruginosa MIC50,[2],1 µg(mL)
same,MIC against 96 strains of P. aeruginosa MIC80,[2],1 µg(mL)
same,MIC against 96 strains of P. aeruginosa MIC90,[2],1 µg(mL)
same,MIC against 96 strains of P. aeruginosa MICrange,[2],0.25 - 2 µg(mL)
same,MIC,"P. aeruginosa KUB No. 579, AR Bank # 447",1 µg/mL
same,MIC,"P. aeruginosa KUB No. 5083, AR Bank # 250",1 µg/mL
same,MIC,"P. aeruginosa KUB No. 5551, AR Bank # 54",2 µg/mL
same,MIC,"P. aeruginosa KUB No. 5561, AR Bank # 64",1 µg/mL
same,MIC,"P. aeruginosa KUB No. 5587, AR Bank # 90",1 µg/mL
same,MIC,"P. aeruginosa KUB No. 5589, AR Bank # 92",1 µg/mL
same,MIC,"P. aeruginosa KUB No. 5591, AR Bank # 94",1 µg/mL
same,MIC,"P. aeruginosa KUB No. 5592, AR Bank # 95",1 µg/mL
same,MIC,"P. aeruginosa KUB No. 5597, AR Bank # 100",1 µg/mL
same,MIC,"P. aeruginosa KUB No. 5600, AR Bank # 103",1 µg/mL
same,MIC,"P. aeruginosa KUB No. 5602, AR Bank # 105",1 µg/mL
same,MIC,"P. aeruginosa KUB No. 5605, AR Bank # 108",1 µg/mL
same,MIC,"P. aeruginosa KUB No. 5607, AR Bank # 110",1 µg/mL
same,MIC,"P. aeruginosa KUB No. 5608, AR Bank # 111",1 µg/mL
same,MIC,"P. aeruginosa KUB No. 5662, AR Bank # 229",1 µg/mL
same,MIC,"P. aeruginosa KUB No. 5663, AR Bank # 230",1 µg/mL
same,MIC,"P. aeruginosa KUB No. 5664, AR Bank # 231",1 µg/mL
same,MIC,"P. aeruginosa KUB No. 5665, AR Bank # 232",1 µg/mL
same,MIC,"P. aeruginosa KUB No. 5666, AR Bank # 23",1 µg/mL
same,MIC,"P. aeruginosa KUB No. 5667, AR Bank # 234",1 µg/mL
same,MIC,"P. aeruginosa KUB No. 5668, AR Bank # 235",0.5 µg/mL
same,MIC,"P. aeruginosa KUB No. 5669, AR Bank # 236",1 µg/mL
same,MIC,"P. aeruginosa KUB No. 5670, AR Bank # 237",0.5 µg/mL
same,MIC,"P. aeruginosa KUB No. 5671, AR Bank # 238",1 µg/mL
same,MIC,"P. aeruginosa KUB No. 5672, AR Bank # 239",1 µg/mL
same,MIC,"P. aeruginosa KUB No. 5673, AR Bank # 240",1 µg/mL
same,MIC,"P. aeruginosa KUB No. 5674, AR Bank # 241",1 µg/mL
same,MIC,"P. aeruginosa KUB No. 5675, AR Bank # 242",0.5 µg/mL
same,MIC,"P. aeruginosa KUB No. 5676, AR Bank # 243",1 µg/mL
same,MIC,"P. aeruginosa KUB No. 5677, AR Bank # 244",1 µg/mL
same,MIC,"P. aeruginosa KUB No. 5678, AR Bank # 245",1 µg/mL
same,MIC,"P. aeruginosa KUB No. 5679, AR Bank # 246",0.5 µg/mL
same,MIC,"P. aeruginosa KUB No. 5680, AR Bank # 247",0.5 µg/mL
same,MIC,"P. aeruginosa KUB No. 5681, AR Bank # 248",1 µg/mL
same,MIC,"P. aeruginosa KUB No. 5682, AR Bank # 249",0.5 µg/mL
same,MIC,"P. aeruginosa KUB No. 5684, AR Bank # 251",0.5 µg/mL
same,MIC,"P. aeruginosa KUB No. 5685, AR Bank # 252",1 µg/mL
same,MIC,"P. aeruginosa KUB No. 5686, AR Bank # 253",1 µg/mL
same,MIC,"P. aeruginosa KUB No. 5687, AR Bank # 254",1 µg/mL
same,MIC,"P. aeruginosa KUB No. 5688, AR Bank # 255",1 µg/mL
same,MIC,"P. aeruginosa KUB No. 5689, AR Bank # 256",0.5 µg/mL
same,MIC,"P. aeruginosa KUB No. 5690, AR Bank # 257",1 µg/mL
same,MIC,"P. aeruginosa KUB No. 5691, AR Bank # 258",0.5 µg/mL
same,MIC,"P. aeruginosa KUB No. 5692, AR Bank # 259",1 µg/mL
same,MIC,"P. aeruginosa KUB No. 5693, AR Bank # 260",1 µg/mL
same,MIC,"P. aeruginosa KUB No. 5694, AR Bank # 261",1 µg/mL
same,MIC,"P. aeruginosa KUB No. 5695, AR Bank # 262",1 µg/mL
same,MIC,"P. aeruginosa KUB No. 5696, AR Bank # 263",0.5 µg/mL
same,MIC,"P. aeruginosa KUB No. 5697, AR Bank # 264",1 µg/mL
same,MIC,"P. aeruginosa KUB No. 5698, AR Bank # 265",1 µg/mL
same,MIC,"P. aeruginosa KUB No. 5699, AR Bank # 266",1 µg/mL
same,MIC,"P. aeruginosa KUB No. 5700, AR Bank # 267",1 µg/mL
same,MIC,"P. aeruginosa KUB No. 5701, AR Bank # 268",1 µg/mL
same,MIC,"P. aeruginosa KUB No. 5702, AR Bank # 269",1 µg/mL
same,MIC,"P. aeruginosa KUB No. 5703, AR Bank # 270",1 µg/mL
same,MIC,"P. aeruginosa KUB No. 5704, AR Bank # 271",1 µg/mL
same,MIC,"P. aeruginosa KUB No. 5705, AR Bank # 272",1 µg/mL
same,MIC,"P. aeruginosa KUB No. 5747, AR Bank # 351",1 µg/mL
same,MIC,"P. aeruginosa KUB No. 5748, AR Bank # 352",0.5 µg/mL
same,MIC,"P. aeruginosa KUB No. 5749, AR Bank # 353",0.5 µg/mL
same,MIC,"P. aeruginosa KUB No. 5750, AR Bank # 354",1 µg/mL
same,MIC,"P. aeruginosa KUB No. 5751, AR Bank # 355",1 µg/mL
same,MIC,"P. aeruginosa KUB No. 5752, AR Bank # 356",0.5 µg/mL
same,MIC,"P. aeruginosa KUB No. 5753, AR Bank # 357",1 µg/mL
same,MIC,"P. aeruginosa KUB No. 5754, AR Bank # 358",1 µg/mL
same,MIC,"P. aeruginosa KUB No. 5755, AR Bank # 359",1 µg/mL
same,MIC,"P. aeruginosa KUB No. 5756, AR Bank # 360",1 µg/mL
same,MIC,"P. aeruginosa KUB No. 5785, AR Bank # 439",0.5 µg/mL
same,MIC,"P. aeruginosa KUB No. 5786, AR Bank # 440",1 µg/mL
